Assay results from patent publication US20260294770A1, “FORMULATIONS OF NARINGENIN” (DEBUT BIOTECHNOLOGY, INC., priority 2023, published 2026).
Entries after “also recorded” stand apart in the source; their conditions may differ.

Assays:
MIR205 = test: Upregulation of gene expression and/or activity, 1% naringenin: MIR205
Source text: (§1) In certain embodiments, administration of a composition comprising naringenin leads to up-regulation of LCE5A, KRT77, ALOXE3, KRT1, HPGD, MUCL1, CASP14, WFDC12, KRT10, DNASE1L2, IL37, SERPINB12, HAL, UPK1A, CALML5, LCE2B, and/or MIR205. In certain embodiments, administration of a composition comprising naringenin leads to down-regulation of CCL11, CSF2, IL23A, IL11, BMP6, IL13RA2, C2CD4A, NR4A2, C2CD4B, FGF2, FARP4, GDF15, THBS1, HSPA1A, PTGS2, and/or DKK1. Tables 10 and 11 provide data for upregulation and downregulation respectively of certain genes after administration of compositions comprising 1% naringenin.
MicroRNA 205 (MIR205) plays a role in clearance of damaged cells. In certain embodiments, administration of compositions comprising naringenin leads to upregulation of MIR205, which leads to increase clearance of damaged cells. This increase in clearance of damaged cells leads to enhancement in cell turnover and/or recycling, which results in an improvement in anti-aging effect. […] In certain embodiments, the administration of composition comprising naringenin results in at least about 2 to about 10-fold upregulation of expression and/or activity of MIR205. In certain embodiments, the administration of composition comprising naringenin results in at least about five (5) fold upregulation of expression and/or activity of MIR205.

BMP6 = test: Downregulation of gene expression and/or activity, 1% naringenin: BMP6
Source text: as §1
Bone morphogenetic protein 6 (BMP6) plays a role in wound healing. The protein encoded by this gene is a member of the TGFβ superfamily. Bone morphogenetic proteins are known for their ability to induce the growth of bone and cartilage. BMP6 may induce all osteogenic markers in mesenchymal stem cells. In certain embodiments, the administration of compositions comprising naringenin leads to downregulation of expression and/or activity of BMP6. […] In certain embodiments, this may also lead to anti-aging effect for the skin. In certain embodiments, the administration of composition comprising naringenin results in at least about 2 to about 20-fold downregulation of expression and/or activity of BMP6. […]

IL11 = test: Downregulation of gene expression and/or activity, 1% naringenin: IL11
Source text: as §1
Interleukin 11 (IL11) plays a role in the inflammatory pathway and in certain pathways that may be involved in cancer. In certain embodiments of the invention, downregulation of IL11 leads to an anti-inflammatory activity and/or anticancer activity. In certain embodiments, the administration of composition comprising naringenin results in at least about 10 to about 20-fold downregulation of expression and/or activity of IL11. In certain embodiments, the administration of composition comprising naringenin results in at least about ten (10) fold downregulation of expression and/or activity of IL11.

[1] = Solubility of naringenin in various solvents; assay type: physicochemical
Experimental: The invention recognizes that the solvent used for preparing naringenin compositions should be any solvent acceptable to be used in cosmetic formulations. In certain embodiments of the invention, naringenin is dissolved in a solvent selected from a group consisting of: dimethyl isosorbide, ethoxydiglycol, isopropyl lauryl sarcosinate, pentylene glycol, propanediol, 1,2-hexanediol, and/or butylene glycol. In certain preferred embodiments, naringenin is dissolved in dimethyl isosorbide. In certain embodiments, naringenin is dissolved in isopropyl lauryl sarcosinate. In certain embodiments, naringenin is dissolved in ethoxydiglycol. In certain embodiments, the solvent is a glycol. In certain embodiments, the glycol is selected from a group consisting of pentylene glycol, butylene glycol, and any combination thereof. In certain embodiments, the solvent is selected from a group consisting of: phenylpropanol, 1,2-hexanediol, propanediol, isopentyldiol, 1,2 heptanediol, and any combination thereof.
Table 1 provides the solubility data for naringenin in several solvents. […]

ALOXE3 = test: Upregulation of gene expression and/or activity, 1% naringenin: ALOXE3
Source text: as §1
Arachidonate lipoxygenase 3 (ALOXE3) is involved in formation of epidermis lipids. In particular, ALOXE3 helps add an oxygen molecule to certain fatty acids to produce substances called fatty acid hydroperoxides. The enzyme encoded by ALOXE3 is a hydroperoxide isomerase that synthesizes a unique type of epoxy alcohol (8R-hydroxy-11R,12R-epoxyeicosa-5Z,9E,14Z-trienoic acid) from 12R-hydroperoxyeicosatetraenoic acid (12R-HPETE). This epoxy alcohol can activate the nuclear receptor peroxisome proliferator-activated receptor alpha (PPARalpha), which is implicated in epidermal differentiation. Loss of function of the enzyme encoded by this gene results in ichthyosis, implicating the function of this gene in the differentiation of human skin. […]

With O=C1C[C@@H](c2ccc(O)cc2)Oc2cc(O)cc(O)c21 [naringenin, (2S)-5,7-Dihydroxy-2-(4-hydroxyphenyl)-2,3-dihydro-4H-1-benzopyran-4-one] the “Fold-increase in expression and/or activity of MIR205” value (MIR205) was roughly 6 fold, the “fold downregulation in expression and/or activity of BMP6” value (BMP6) was roughly 11 fold and the “Fold-increase (downregulation table) BMP6” value (BMP6; negative = downregulation) was −11 fold. For the same compound, the “fold downregulation in expression and/or activity of IL11” value (IL11) was roughly 14 fold, the “Solubility (in words)” value ([1]; in Helianthus Annuus (Sunflower) Seed Oil / sunflower oil) was “insoluble in Helianthus Annuus (Sunflower) Seed Oil; also recorded: not soluble in sunflower oil” and the “Solubility (in words)” value ([1]; in water) was “poorly soluble or insoluble in water”. For the same compound, the “Naringenin Solubility” value ([1]; solvent: 1,2 heptanediol) was 2.50 % w/w, the “Naringenin Solubility” value ([1]; solvent: 1,2 hexanediol) was 2.50 % w/w and the “Naringenin Solubility” value ([1]; solvent: 1,2 propanediol) was 0.00 % w/w. The “Naringenin Solubility” value ([1]; solvent: 3-methyl-1,3-butanediol) was 0.00 % w/w, the “Naringenin Solubility” value ([1]; solvent: Butylene glycol) was 2.50 % w/w and the “Naringenin Solubility” value ([1]; solvent: C9-12 alkane) was 0.00 % w/w. The “Naringenin Solubility” value ([1]; solvent: C15-19 alkane) was 0.00 % w/w, the “Naringenin Solubility” value ([1]; solvent: Capric/caprylic triglyceride) was 0.00 % w/w and the “Naringenin Solubility” value ([1]; solvent: Di(propylene glycol) dibenzoate) was 0.00 % w/w. The “Naringenin Solubility” value ([1]; solvent: Dimethyl isosorbide) was 15.00 % w/w, the “Naringenin Solubility” value ([1]; solvent: Ethoxydiglycol) was 20.00 % w/w and the “Naringenin Solubility” value ([1]; solvent: Isoamyl laurate) was 0.00 % w/w. The “Naringenin Solubility” value ([1]; solvent: Isopentyldiol) was 2.50 % w/w, the “Naringenin Solubility” value ([1]; solvent: Isopropyl lauryol sarcosinate) was 10.00 % w/w and the “Naringenin Solubility” value ([1]; solvent: Isopropyl myristate) was 0.00 % w/w. For the same compound, the “Naringenin Solubility” value ([1]; solvent: Neopentyl glycol diethylhexanoate) was 0.00 % w/w, the “Naringenin Solubility” value ([1]; solvent: Oleyl alcohol) was 0.00 % w/w and the “Naringenin Solubility” value ([1]; solvent: Pentylene glycol) was 2.50 % w/w. The “Naringenin Solubility” value ([1]; solvent: Phenylpropanol) was 5.00 % w/w, the “Naringenin Solubility” value ([1]; solvent: Propanediol) was 2.50 % w/w and the “Naringenin Solubility” value ([1]; solvent: Squalene) was 0.00 % w/w. For the same compound, the “Naringenin Solubility” value ([1]; solvent: Tri C12-C13 alkyl citrate) was 0.00 % w/w, the “Naringenin Solubility” value ([1]; solvent: Tributyl citrate) was 0.00 % w/w and the “Naringenin Solubility” value ([1]; solvent: Tributyl-O-acetylcitrate) was 0.00 % w/w. For the same compound, the “Naringenin Solubility” value ([1]; solvent: Triethyl O-acetylcitrate) was 0.00 % w/w, the “Naringenin Solubility” value ([1]; solvent: Triethyl citrate) was 0.00 % w/w and the “Naringenin Solubility” value ([1]; solvent: Triisostearin) was 0.00 % w/w. The “Naringenin Solubility” value ([1]; solvent: jojoba oil) was 0.00 % w/w, the “Naringenin Solubility” value ([1]; solvent: sunflower oil) was 0.00 % w/w and the “Fold-increase in expression and/or activity of ALOXE3” value (ALOXE3) was roughly 12 fold.
